Experiment [1] concerns the target T1, ROCKII (1-543) (Homo sapiens, UniProt O75116). Briefly: IMAP Assay (fluorescence polarization, FAM S6 peptide). It is filed as biochemical. Further details: 3 nM ROCKII (1-543) diluted in kinase reaction buffer. Conditions: IMAP FP, 1 nM ROCKII (1-543), 100 μM ATP; read-out: Assay 2 IC50. The protocol:
This assay is performed using FAM S6 substrate peptide (Catalogue #R7184) and IMAP FP Screening Express Kit detection reagents from Molecular Devices (Sunnyvale, Calif.) in IMAP kinase reaction buffer (Tris-HCl, pH 7.2, 10 mM MgCl2, 0.05% NaN3, 0.1% phosphate-free BSA) containing 1 mM DTT. Test compounds dissolved in neat DMSO at 0.3 mg/mL are serially diluted 1 to 3 for concentration response in 100% DMSO. The DMSO serial dilutions are further diluted 33.33-fold in kinase reaction buffer, and 10 μL of this buffer dilution is transferred to Corning black 96-well half area NBS plates for a final top concentration of 3 μg/mL in 1% DMSO. 10 μL aliquot of 3 nM ROCKII (1-543) diluted in kinase reaction buffer is added to each assay well for a final concentration of 1 nM kinase. 10 μL of a mixture of 600 nM FAM S6 peptide and 300 μM ATP diluted in kinase reaction buffer is added to each well for a final concentration of 200 nM peptide and 100 μM ATP. The kinase reaction mixture is incubated for 60 minutes at room temperature. Positive controls are reaction mixtures containing no test compound and negative controls (blanks) are reaction mixtures containing no kinase. The kinase reaction is stopped by addition of 60 μL IMAP progressive binding reagent (Catalog #R7284) diluted 400-fold in 1× Binding buffer A. After 30 min of incubation at room temperature, the plates are read for fluorescence polarization on Analyst Plate Reader using Ex 485 nm, Em 530 nm, and FL 505 dichroic mirror. The mP signals are converted to percent of control (POC) values using the formula: POC=100*(Signal−BCTRL)÷(PCTRL−BCTRL)
Where Signal is the test well signal, BCTRL is the average of background (negative control) well signals on the plate and PCTRL is the average of positive control well signals on the plate. For the concentration-responsive compounds, POC as a function of test compound concentration is fitted to a 4-parameter logistic equation of the form: Y=A+(B−A)/[1+(x/C)D]
Where A, B, C, and D are fitted parameters (parameter B is fixed at zero POC), and x and y are the independent and dependent variables, respectively. The IC50 is determined as the inflection point parameter, C.
A general note: In fluorescence polarisation assays a small probe gives low polarisation when free and higher when bound to something large.
Target sequence in this assay (O75116 1-543, species assumed): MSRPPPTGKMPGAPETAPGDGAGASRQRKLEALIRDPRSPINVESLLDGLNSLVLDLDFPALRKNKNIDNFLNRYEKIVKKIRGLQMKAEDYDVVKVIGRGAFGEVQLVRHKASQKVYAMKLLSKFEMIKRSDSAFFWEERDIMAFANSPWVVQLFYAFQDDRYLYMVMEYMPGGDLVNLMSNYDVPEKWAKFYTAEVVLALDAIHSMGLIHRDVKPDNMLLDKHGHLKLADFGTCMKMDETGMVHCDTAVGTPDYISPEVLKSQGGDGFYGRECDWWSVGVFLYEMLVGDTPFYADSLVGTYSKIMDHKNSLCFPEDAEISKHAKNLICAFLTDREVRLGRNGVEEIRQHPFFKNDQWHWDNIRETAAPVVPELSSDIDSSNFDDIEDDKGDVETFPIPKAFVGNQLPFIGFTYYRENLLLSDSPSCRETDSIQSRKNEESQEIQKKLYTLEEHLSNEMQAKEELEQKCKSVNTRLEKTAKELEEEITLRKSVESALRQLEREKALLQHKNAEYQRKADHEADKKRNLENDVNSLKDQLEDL

For experiment [2], the target named is T1, ROCKII (1-543). In words: Luciferin-Luciferase Assay (PKLight ATP detection). The experiment is classed as biochemical. Further details: ROCKII (1-543) (62,408 Da) was diluted in assay buffer. Conditions: 7.5 nM ROCKII (1-543), 750 nM ATP. As to the method:
1. Luciferin-Luciferase Assay
The activity of ROCKII (1-543) kinase was measured utilizing Cambrex PKLight ATP Detection Reagent, a homogeneous assay technology using luciferin-luciferase to quantify residual ATP. The assay was performed in 384-well low-volume, white, non-binding surface microtiter plates (Corning). The assay buffer was 25 mM HEPES, pH 7.5, 10 mM MgCl2, 50 mM KCl, 0.2% BSA, 0.01% CHAPS, 100 μM Na3VO4 and 0.5 mM DTT. Test compounds, dissolved in neat DMSO at 500 μg/mL, were serially diluted for dose response for a final starting concentration of 3 μg/mL in 1% DMSO of assay buffer. ROCKII (1-543) (62,408 Da) was diluted in assay buffer to a final concentration of 7.5 nM in a total volume of 15 μL. Positive controls were reaction mixtures containing no test compound; negative controls (blanks) were reaction mixtures containing no kinase. After 15 minutes of pre-incubation of the test compounds with the kinase, a mixture of ATP and peptide substrate (AKRRRLSSLRA) in assay buffer was added to each well for a final concentration of 750 nM ATP and 500 nM peptide, respectively. After 90 minutes of incubation of the kinase reaction at 28° C. temperature, 10 μL of PKLight ATP Detection Reagent (warmed to room temperature previously) was added to each well. The assay plate was incubated at room temperature for additional 15 minutes and then read on an Analyst in luminescence mode. Dose-response experiments for each of the test compounds were conducted in quadruplet. IC50 values of test compounds represent 50% response of the positive control from the dose-response curve.
Target sequence in this assay (O75116 1-543): as the sequence (O75116 1-543, species assumed) above

The source of these data is patent US9000154B2, “Rho kinase inhibitors” (Boehringer Ingelheim International GmbH, priority 2010, dated 2015).

On to `CN(C)[C@H]1CCc2nc(NC(=O)c3cccc(Cn4cc(-c5ccc(C#N)cc5)nn4)c3)sc2C1` [Compound 4, 3-[4-(4-Cyano-phenyl)-[1,2,3]triazol-1-ylmethyl]-N—((S)-6-dimethylamino-4,5,6,7-tetrahydro-benzothiazol-2-yl)-benzamide], for which the IC50 – broadly, the concentration that inhibits the measured activity by half – at ROCKII (1-543) [1] turned out to be 0.49 nM.

`CN(C)[C@H]1CCc2nc(NC(=O)c3cccc(Cn4cc(-c5ccc(C#N)cc5)cn4)c3)sc2C1` [Compound 5, 3-[4-(4-Cyano-phenyl)-pyrazol-1-ylmethyl]-N—((S)-6-dimethylamino-4,5,6,7-tetrahydro-benzothiazol-2-yl)-benzamide]: the IC50 on ROCKII (1-543) [1] worked out at 0.2 nM. `N#Cc1ccc(-c2cnn(Cc3cccc(C(=O)Nc4nc5c(s4)C[C@@H](N4CCOCC4)CC5)c3)c2)cc1` [Compound 7, 3-[4-(4-Cyano-phenyl)-pyrazol-1-ylmethyl]-N—((S)-6-morpholin-4-yl-4,5,6,7-tetrahydro-benzothiazol-2-yl)-benzamide]: the IC50 on ROCKII (1-543) [1] is 0.4 nM.

`N#Cc1ccc(-c2cn(Cc3cccc(C(=O)Nc4nc5c(s4)C[C@@H](N4CCOCC4)CC5)c3)nn2)cc1` [Compound 8, 3-[4-(4-Cyano-phenyl)-[1,2,3]triazol-1-ylmethyl]-N—((S)-6-morpholin-4-yl-4,5,6,7-tetrahydro-benzothiazol-2-yl)-benzamide]: the IC50 at ROCKII (1-543) [1] is 1 nM.

As to `CN1CCN(C2CCc3nc(NC(=O)c4cccc(Cn5cc(-c6ccc(C#N)cc6)cn5)c4)sc3C2)CC1` (centres unmarked) [Compound 11, 3-[4-(4-Cyano-phenyl)-pyrazol-1-ylmethyl]-N-[6-(4-methyl-piperazin-1-yl)-4,5,6,7-tetrahydro-benzothiazol-2-yl]-benzamide], the IC50 on ROCKII (1-543) [1] came to 0.58 nM. For the compound `N#CCCN[C@H]1CCc2nc(NC(=O)c3cccc(Cn4cc(-c5ccc(C#N)cc5)nn4)c3)sc2C1` [Compound 13, N—[(S)-6-(2-Cyano-ethylamino)-4,5,6,7-tetrahydro-benzothiazol-2-yl]-3-[4-(4-cyano-phenyl)-[1,2,3]triazol-1-ylmethyl]-benzamide], on ROCKII (1-543) [1], the IC50 came to 1 nM. For `COCCN(C)C1CCc2nc(NC(=O)c3cccc(Cn4cc(-c5ccc(C#N)cc5)cn4)c3)sc2C1` (centres unmarked) [Compound 14, 3-[4-(4-Cyano-phenyl)-pyrazol-1-ylmethyl]-N-{6-[(2-methoxy-ethyl)-methyl-amino]-4,5,6,7-tetrahydro-benzothiazol-2-yl}-benzamide], on ROCKII (1-543) [1], the IC50 was found to be 0.41 nM. On the same count and under the same terms, to `N#Cc1ccc(-c2cnn(Cc3cccc(C(=O)Nc4nc5c(s4)C[C@@H](NCCC(F)(F)F)CC5)c3)c2)cc1` [Compound 20, 3-[4-(4-Cyano-phenyl)-pyrazol-1-ylmethyl]-N—[(S)-6-(3,3,3-trifluoro-propylamino)-4,5,6,7-tetrahydro-benzothiazol-2-yl]-benzamide] belongs 0.47 nM; to `CN1CCN(C2CCc3nc(NC(=O)c4cccc(Cn5cc(-c6ccc(C#N)cc6)nn5)c4)sc3C2)CC1` (centres unmarked) [Compound 23, 3-[4-(4-Cyano-phenyl)-[1,2,3]triazol-1-ylmethyl]-N-[6-(4-methyl-piperazin-1-yl)-4,5,6,7-tetrahydro-benzothiazol-2-yl]-benzamide], 1.3 nM; to `CN1CCN([C@H]2CCc3nc(NC(=O)c4cccc(Cn5cc(-c6ccc(C#N)cc6)cn5)c4)sc3C2)CC1` [Compound 25, 3-[4-(4-Cyano-phenyl)-pyrazol-1-ylmethyl]-N—[(S)-6-(4-methyl-piperazin-1-yl)-4,5,6,7-tetrahydro-benzothiazol-2-yl]-benzamide], 0.65 nM. Still for that read-out and setting: to `N#Cc1ccc(-c2cnn(Cc3cccc(C(=O)Nc4nc5c(s4)C[C@@H](N)CC5)c3)c2)cc1` [Compound 28, N—((S)-6-Amino-4,5,6,7-tetrahydro-benzothiazol-2-yl)-3-[4-(4-cyano-phenyl)-pyrazol-1-ylmethyl]-benzamide] belongs 0.35 nM; to `N#Cc1ccc(-c2cn(Cc3cccc(C(=O)Nc4nc5c(s4)C[C@@H](N)CC5)c3)nn2)cc1` [Compound 29, N—((S)-6-Amino-4,5,6,7-tetrahydro-benzothiazol-2-yl)-3-[4-(4-cyano-henyl)-[1,2,3]triazol-1-ylmethyl]-benzamide], 0.73 nM. Same read-out and setting: the result for `CN(CCC(F)(F)F)[C@H]1CCc2nc(NC(=O)c3cccc(Cn4cc(-c5ccc(C#N)cc5)nn4)c3)sc2C1` [Compound 31, 3-[4-(4-Cyano-phenyl)-[1,2,3]triazol-1-ylmethyl]-N-{(S)-6-[methyl-(3,3,3-trifluoro-propyl)-amino]-4,5,6,7-tetrahydro-benzothiazol-2-yl}-benzamide] reads 3.1 nM; that for `N#CCCN[C@H]1CCc2nc(NC(=O)c3cccc(Cn4cc(-c5ccc(C#N)cc5)cn4)c3)sc2C1` [Compound 33, N—[(S)-6-(2-Cyano-ethylamino)-4,5,6,7-tetrahydro-benzothiazol-2-yl]-3-[4-(4-cyano-phenyl)-pyrazol-1-ylmethyl]-benzamide], 0.35 nM.

Compound `N#Cc1cccc(-c2ccnc(Cc3cccc(C(=O)Nc4nc5c(s4)C[C@@H](N4CCOCC4)CC5)c3)n2)c1` [Compound 36, 3-[4-(3-Cyano-phenyl)-pyrimidin-2-ylmethyl]-N—((S)-6-morpholin-4-yl-4,5,6,7-tetrahydro-benzothiazol-2-yl)-benzamide] registered an IC50 on ROCKII (1-543) [2] of 9.9 nM. For `COCCN(C)[C@H]1CCc2nc(NC(=O)c3cccc(Cn4cc(-c5ccc(C#N)cc5)cn4)c3)sc2C1` [Compound 46, 3-[4-(4-Cyano-phenyl)-pyrazol-1-ylmethyl]-N-{(S)-6-[(2-methoxy-ethyl)-methyl-amino]-4,5,6,7-tetrahydro-benzothiazol-2-yl}-benzamide], the IC50 at ROCKII (1-543) [1] came to 0.34 nM. Same read-out and setting: the result for `COCCN[C@H]1CCc2nc(NC(=O)c3cccc(Cn4cc(-c5ccc(C#N)cc5)nn4)c3)sc2C1` [Compound 48, 3-[4-(4-Cyano-phenyl)-[1,2,3]triazol-1-ylmethyl]-N—[(S)-6-(2-methoxy-ethylamino)-4,5,6,7-tetrahydro-benzothiazol-2-yl]-benzamide] reads 0.32 nM. Take `N#Cc1ccc(-c2cnn(Cc3cccc(C(=O)Nc4nc5c(s4)CC(NCC(F)F)CC5)c3)c2)cc1` (centres unmarked) [Compound 51, 3-[4-(4-Cyano-phenyl)-pyrazol-1-ylmethyl]-N-[6-(2,2-difluoro-ethylamino)-4,5,6,7-tetrahydro-benzothiazol-2-yl]-benzamide]: at ROCKII (1-543) [2], the IC50 is 1.8 nM. Same read-out and setting: the result for `N#Cc1ccc(-c2cn(Cc3cccc(C(=O)Nc4nc5c(s4)CC(NCC(F)F)CC5)c3)nn2)cc1` (centres unmarked) [Compound 52, 3-[4-(4-Cyano-phenyl)-[1,2,3]triazol-1-ylmethyl]-N-[6-(2,2-difluoro-ethylamino)-4,5,6,7-tetrahydro-benzothiazol-2-yl]-benzamide] reads 9.4 nM; that for `CN(CCC#N)[C@H]1CCc2nc(NC(=O)c3cccc(Cn4cc(-c5ccc(C#N)cc5)cn4)c3)sc2C1` [Compound 53, N-{(S)-6-[(2-Cyano-ethyl)-methyl-amino]-4,5,6,7-tetrahydro-benzothiazol-2-yl}-3-[4-(4-cyano-phenyl)-pyrazol-1-ylmethyl]-benzamide], 1.9 nM.
